From the NIST ThermoML archive (doi:10.1021/je700179q)
Numbers after ± are expanded uncertainties.

Conditions: Crystal; visual observation

- Normal melting temperature: 116.00 ± 1 °C
SMILES: c1ccc2c(c1)Cc1ccccc1-2 [fluorene]
